Values of other authors as cited in patent US7311392B2, “Inkjet recording ink and method of inkjet recording” (Fujifilm Corporation, priority 2002, dated 2007).

Details: 20° C.; water-miscible organic solvent of the ink

| SMILES | Vapor Pressure [Pa] |
| --- | --- |
| OCCOCCO [Diethylene glycol] | <1.3 (20° C.) Pa |
| COCC(C)O (centres unmarked) [Compound 1-Methoxy-2-propanol, 1-Methoxy-2-propanol] | 1013 (20° C.) Pa |
| CC(C)O [Compound 2-Propanol, 2-Propanol] | 4320 (20° C.) Pa |

Now from value to compound:

| Vapor Pressure [Pa] | SMILES |
| --- | --- |
| <1.3 (20° C.) Pa | CCCCOCCOCCOCCO [Triethylene glycol monobutyl ether] |
| 0.3 (20° C.) Pa | OCC(O)CO [Glycerin] |
